We go through nine compounds from patent publication US9901592B2 (priority 2008, dated 2018).

The subject of one test is S. pneumoniae. The test is described as follows: microbe, parasite or virus in culture. The class given is cell-based.
In the next test the test system is N. meningitidis. The test is described as follows: MIC, CLSI broth microdilution, invasive isolates. The class given is cell-based. As to conditions: for MIC / MIC50 / MIC90: Neisseria meningitidis, 62 N. meningitidis isolates. Here is the method: Example. […] Colonization of the nasopharynx (NP) by NM can lead to invasive meningococcal disease. Chemoprophylaxis is used to eradicate NP colonization and prevent transmission to nonimmune contacts. […] 62 isolates (91.9% blood culture) of NM were collected from 29 medical centers in North and South America and Europe (1997-2008). […] Serological identification was performed for serogroups (SGs) B, C, Y and W135.
On the technique in general: Dilution methods test growth across graded concentrations, often in twofold steps.

The next test concerns pneumococci. The test is described as follows: microbe, parasite or virus in culture. In kind it is cell-based, S. pneumoniae.
The next test relates to group A streptococci. The test is described as follows: microbe, parasite or virus in culture. In kind it is cell-based, S. pyogenes.
The test system of a further test is M. catarrhalis. The test is described as follows: microbe, parasite or virus in culture. The class given is cell-based.
The subject of a further test is M. fermentans. In kind it is cell-based. As to conditions: M. fermentans (15 isolates).
The next test relates to M. pneumoniae. The test is described as follows: microbe, parasite or virus in culture. In kind it is cell-based.
In another test the test system is U. parvum. The test is described as follows: MIC testing in 10B broth (colour change). In kind it is cell-based, Ureaplasma parvum.
Another test relates to U. urealyticum. The test is described as follows: MIC testing in 10B broth (colour change). The class given is cell-based.
The next test concerns M. genitalium. The class given is cell-based. Particulars: M. genitalium (5 isolates).
The subject of another test is M. hominis. The class given is cell-based.
Another test deals with streptococci. The test is described as follows: organism not typed. In kind it is cell-based.
The mark [1] stands for this setting: Streptococcus pneumoniae, pneumococci, L4 mutations (27).
Setting [2] is: Ureaplasma urealyticum, U. urealyticum (10 isolates).

Converted amounts (≈) assume the structure as drawn. “And” between values parts separate entries of the source, which are not always exact repeats. Equal values may be shown once. Read-outs that look alike come from different tables or passages of the source.

For orientation: MIC means the least concentration at which growth counts as inhibited. Low readings indicate inhibition by little substance, high ones a need for much substance. For `CO/N=C(\C(=O)N[C@@H]1C(=O)N2C(C(=O)O)=C(CSc3nc(=O)c(=O)[nH]n3C)CS[C@H]12)c1csc(N)n1` [CRO, ceftriaxone], the nonsusceptibility in the test with S. pneumoniae came out at 33.3%. Further, in the test with N. meningitidis (CLSI (M100-S19, 2009) criteria), the “% Susc.” value is 100.0%. In addition, in the test on N. meningitidis, the MIC is at most 0.015 µg/mL, the MIC50 was at most 0.015 µg/mL and the MIC90 is at most 0.015 µg/mL.
As for `C[C@H]1COc2c(N3CCN(C)CC3)c(F)cc3c(=O)c(C(=O)O)cn1c23` [Levo], in the test with pneumococci, the MIC50 is 1 µg/mL (≈ 2.77 µM), the “MIC Range” value was 0.06 to 32 µg/mL and the MIC range fell in the range of 1 to 32 µg/mL. Further, in the test with group A streptococci, the MIC50 is 0.5 µg/mL (≈ 1.38 µM); the MIC90 is 0.5 µg/mL and 1 µg/mL; the “MIC Range” value is 0.5 to 1 µg/mL and 0.5 to 2 µg/mL.
In the test with pneumococci (pneumococci, L4 mutations (27)), Amoxicillin Clavulanate displayed an MIC50 of 4 µg/mL and an MIC90 of 8 µg/mL.
In the test on pneumococci (pneumococci, L4 mutations (27)), `CC1(C)S[C@@H]2[C@H](NC(=O)Cc3ccccc3)C(=O)N2[C@H]1C(=O)O` [Penicillin G] gave an MIC50 of 4 µg/mL (≈ 12 µM) and an MIC90 of 16 µg/mL (≈ 47.8 µM). In the test with group A streptococci, the MIC50 stood at 0.015 µg/mL (≈ 0.0449 µM); the MIC90 is 0.015 µg/mL and 0.03 µg/mL.
Consider `COc1c(N2C[C@@H]3CCCN[C@@H]3C2)c(F)cc2c(=O)c(C(=O)O)cn(C3CC3)c12` [Moxi], for which, in the test on pneumococci, the MIC50 stood at 0.25 µg/mL (≈ 0.623 µM), the “MIC Range” value is 0.125 to 4 µg/mL and the MIC range lay within 0.125 to 8 µg/mL. In addition, in the test on group A streptococci, the MIC50 is 0.25 µg/mL (≈ 0.623 µM); the MIC90 was determined as 0.25 µg/mL (≈ 0.623 µM); the “MIC Range” value was 0.125 to 0.25 µg/mL and 0.125 to 0.5 µg/mL.
With `CC1(C)S[C@@H]2[C@H](NC(=O)Cc3ccccc3)C(=O)N2[C@H]1C(=O)O` [Pen G], in the test with pneumococci, the MIC50 came out at 1 µg/mL (≈ 2.99 µM); the MIC90 was 2 µg/mL and 4 µg/mL; the MIC range fell in the range of 0.015 to 8 µg/mL. Moreover, in the test on group A streptococci, the MIC50 was determined as 0.015 µg/mL (≈ 0.0449 µM); the MIC90 is 0.015 µg/mL and 0.03 µg/mL; the “MIC Range” value was <0.008 to 0.125 µg/mL and 0.008 to 0.015 µg/mL and <0.008 to 0.015 µg/mL and 0.015 µg/mL.
Consider `CC[C@H]1OC(=O)[C@H](C)[C@@H](O[C@H]2C[C@@](C)(OC)[C@@H](O)[C@H](C)O2)[C@H](C)[C@@H](O[C@@H]2O[C@H](C)C[C@H](N(C)C)[C@H]2O)[C@](C)(O)C[C@@H](C)C(=O)[C@H](C)[C@@H](O)[C@]1(C)O` [Erythromycin, erythromycin A], for which the MIC50 was over 64 µg/mL in the test on pneumococci (setting [1]) and 0.12 µg/mL (≈ 0.164 µM) against N. meningitidis. In addition, the MIC90 in the test on pneumococci (setting [1]) was over 64 µg/mL; against S. pneumoniae (Streptococcus pneumoniae), over 32 µg/mL; in the test with M. catarrhalis (Moraxella catarrhalis) it was 0.25 µg/mL (≈ 0.341 µM); against N. meningitidis it was 0.25 µg/mL (≈ 0.341 µM). Besides, the MIC in the test with N. meningitidis lay within 0.03 to 0.5 µg/mL (≈ 0.0409 to 0.681 µM).
As to `C[C@H]1c2cccc(O)c2C(=O)C2=C(O)[C@]3(O)C(=O)C(C(N)=O)=C(O)[C@@H](N(C)C)[C@@H]3[C@@H](O)[C@@H]21` [Doxycycline, doxycycline], the “MIC Range” value is 0.016 to 0.5 µg/mL against M. fermentans; 0.016 to 0.25 µg/mL in the test with M. pneumoniae; 0.031 to 16 µg/mL against U. parvum (U. parvum (10 isolates)); 0.031 to 32 µg/mL in the test on U. urealyticum (U. urealyticum (10 isolates)); “≦0.008-0.031 μg/mL” with M. genitalium; “≦0.008-0.016 μg/mL” against M. hominis (M. hominis (13 isolates)). Further, the MIC50 with M. fermentans (Mycoplasmopsis fermentans) is 0.125 µg/mL (≈ 0.281 µM); with M. pneumoniae (Mycoplasmoides pneumoniae) it was 0.125 µg/mL (≈ 0.281 µM); with U. parvum (Ureaplasma parvum, U. parvum (10 isolates), read-out: MIC50), 8 µg/mL (≈ 18 µM); against U. urealyticum (setting [2]), 1 µg/mL (≈ 2.25 µM); in the test on M. hominis (Metamycoplasma hominis), 0.125 µg/mL (≈ 0.281 µM). The MIC90 in the test on M. fermentans (Mycoplasmopsis fermentans) was determined as 0.5 µg/mL (≈ 1.13 µM); in the test on M. pneumoniae (Mycoplasmoides pneumoniae), 0.25 µg/mL (≈ 0.563 µM); in the test on U. parvum (Ureaplasma parvum, U. parvum (10 isolates), read-out: MIC90), 16 µg/mL (≈ 36 µM); against U. urealyticum (setting [2]), 16 µg/mL (≈ 36 µM); in the test on M. hominis (Metamycoplasma hominis), 8 µg/mL (≈ 18 µM). The MIC in the test with U. parvum (7 doxycycline-resistant Ureaplasma parvum) was 4 to 16 µg/mL (≈ 9 to 36 µM); with U. urealyticum (Ureaplasma urealyticum, 4 doxycycline-resistant U. urealyticum), 4 to 32 µg/mL (≈ 9 to 72 µM); with M. hominis (Metamycoplasma hominis, 2 doxycycline-resistant M. hominis isolates) it was 8 to 16 µg/mL (≈ 18 to 36 µM).
For quinupristin/dalfopristin [Q/D], in the test with S. pneumoniae, the “MIC 90%” value is 1 µg/mL and the susceptible amounted to 100.0%. Besides, the “MIC 90%” value against M. catarrhalis turned out to be 0.5 µg/mL. For the same compound, in the test on streptococci, the “MIC 50%” value came out at 0.5 µg/mL; the “MIC 90%” value was 0.5 µg/mL and 1 µg/mL.
